Patent US11110102B2, “Antifungal agents used in combination” (Scynexis, Inc., priority 2017, dated 2021)

Key:
A. fumigatus MRL #28500 = assay: Checkerboard combination MIC testing; assay type: cell-based, Aspergillus fumigatus; settings: read at 48 hours, duplicate
Excerpt: To determine the type of interaction between a representative compound of the enfumafungin derivatives (SCY-078) with several antifungal agents against Aspergillus fumigatus, the most frequent mold causing invasive disease in humans, the checkerboard method was used. The citrate salt of the compound was used in the studies.
The checkerboard method involves the determination of percent growth inhibition of fungal cells in the presence of different combinations of drugs. Percent growth inhibition is calculated relative to growth in control wells which contain only cells and no drug. The assay was performed in 96-well microplates in which each row and each column contained twofold serial dilutions of drug A and drug B at concentrations ranging from 0 to slightly higher than their minimum inhibitory concentration (MIC). […] Then the inoculum was added to each well and the growth was evaluated after 48 hrs incubation to determine the first well in which growth was inhibited. The checkerboard-based determination of MICs of antifungal agents in combination was followed by further analysis employing the nonparametric fractional inhibitory concentration index (FICI), which is defined by the following equation:
[formula] where MIC-A and MIC-B are the MICs of drugs A and B, respectively.
Each drug was initially diluted in either sterile, distilled water or in DMSO, depending on whether the drug was water-soluble or water-insoluble, respectively.
Stock solution of SCY-078 was prepared in DMSO at 200 times the concentration desired for use in the drug plates. Serial dilutions of stock solution were conducted in DMSO to obtain eleven 2-fold dilutions of the drug. The SCY-078 solution was then diluted to 4 times the desired concentration in RPMI-1640 medium so that the DMSO would not limit growth of the organism and so that the quantity of DMSO was the same for every dilution.
Two 96-well plates are needed to conduct a combination test. Using a multichannel pipette, 50 μl of the lowest concentration of the first drug (Drug A) was added to each well of column 1 of the first plate (plate A) and column 1 of the second plate (plate B; rows A-D). Then, 50 μl of the next highest working dilution of Drug A was added to each well in column 2, continuing with dilutions until all columns 1-11 were filled. Column 12 was left empty. 50 μl of the lowest concentration of Drug B was added to each well in Row D of plate B. 50 μl of the next highest working dilution of Drug B was added to each well in row C of plate B, continuing with dilutions until all rows through row B of plate A were filled.
Following the above, 100 μl of organism inoculum was added to every well. The plates were then incubated for 48 hours and visually read after incubation.
The objective of the study was to determine whether the combination of SCY-078 with voriconazole, isavuconazole, or amphotericin B would result in a combined in vitro antifungal activity exceeding the sum of the activities of each drug alone. Combination MIC testing was performed using the checkerboard assay described above.
A. fumigatus 28500 has a CYP51 mutation at F46Y.
Initial MIC determinations of the individual antifungals were performed according to the Clinical and Laboratory Standards Institute (CLSI) M38-A2 standard for the susceptibility testing of filamentous fungi.
Combination MIC testing was performed using a checkerboard test method according to the Center for Medical Mycology SOP A11.3. The checkerboard combination test method is a modification of the microdilution antifungal susceptibility test wherein two test compounds are combined in varying concentrations to determine whether they have synergistic, antagonistic, or no effect on the respective MIC values.
Antifungals were serially diluted two-fold in RPMI medium to produce eleven concentrations each and were combined in wells of a microtiter plate. Two rows consisting of serial dilutions of each individual drug were included. […]

[1] = test system: NIH Aspergillus fumigatus isolate 4215; assay: Neutropenic rabbit model of invasive pulmonary aspergillosis (New Zealand White rabbits); assay type: in vivo; settings: intravenously once daily
Description: A study was conducted to evaluate the efficacy of the combination of SCY-078 with isavuconazole. Isavuconazole is a second generation antifungal triazole with activity against Aspergillus spp. As described above, invasive pulmonary aspergillosis is a life-threatening infection in immunosuppressed patients—particularly those with severe and prolonged neutropenia as a consequence of myelotoxic chemotherapy for the treatment of cancer, and those receiving immunosuppressive medication for rejection prophylaxis after organ transplantation or treatment of graft-versus-host disease (GVHD) after allogeneic bone marrow transplantation. A neutropenic rabbit model was selected for this in vivo evaluation to further illustrate the effect of the combination therapy of SCY-078 and an azole, in a relevant immunosuppressed population.
New Zealand White rabbits weighing 2.5 to 3.5 kg (Covance Research Products, Inc., Denver, Pa.) were used in this study. Vascular access was established by the surgical placement of a silastic tunneled central venous catheter. Cytosine arabinoside (Cytosar-U) 525 mg/m^2 was administered intravenously on days 1 through 5, and on days 8, 9, 13 and 14 to produce profound and persistent neutropenia (a neutrophil concentration of <100 neutrophils/μL). Methylprednisolone (Solu-Medrol®, Pfizer, NY) 5 mg/kg was administered on days 1 through 3 to inhibit macrophage activity. […]
Survival, pulmonary infarct, and galactomannan antigenemia (a serological marker of Aspergillus infection) were evaluated as indicators of treatment response. […] Serum galactomannan concentrations were determined by the Platelia® Aspergillus enzyme immunoassay (EIA) (Bio-Rad, Marnes-la-Coquette, France) one-stage immunoenzymatic sandwich microplate assay method. Enzyme immunoassay data were expressed as a serum GMI (galactomannan index) plotted over time.

Structure (SMILES) | MIC per drug in Combination (A. fumigatus MRL #28500; A. fumigatus MRL 28500 (azole-resistant, CYP51 F46Y), SCY-078 combined with isavuconazole) | MIC (A. fumigatus MRL #28500; Aspergillus fumigatus, SCY078, 48 h, read-out: MIC per drug Alone, A. fumigatus MRL 28500 (azole-resistant, CYP51 F46Y), drug alone, SCY-078/isavuconazole test) | survival rate up to day 13 ([1]; ISA40: isavuconazole 40 mg/kg/day alone, 2 out of 6) | MIC in Combination (A. fumigatus MRL #28500; A. fumigatus MRL 28500 (azole-resistant, CYP51 F46Y), SCY-078 combined with voriconazole) | MIC Alone (A. fumigatus MRL #28500; A. fumigatus MRL 28500 (azole-resistant, CYP51 F46Y), drug alone, SCY-078/voriconazole test) | survival rate up to day 13 ([1]; SCY2.5: SCY-078 2.5 mg/kg/day alone, 1 out of 6) | survival until day 13 ([1]; SCY7.5: SCY-078 7.5 mg/kg/day alone, six per group)
C[C@@H](c1nc(-c2ccc(C#N)cc2)cs1)[C@](O)(Cn1cncn1)c1cc(F)ccc1F [Isavuconazole, isavuconazole] | >8 µg/mL | > 8 µg/mL | 32% |  |  |  | 
CC(C)[C@@H](C)[C@@]1(C)CC[C@]2(C)[C@H]3CC[C@@H]4[C@@]5(COC[C@@]4(C)[C@@H](OC[C@](C)(N)C(C)(C)C)[C@H](n4ncnc4-c4ccncc4)C5)C3=CC[C@@]2(C)[C@@H]1C(=O)O [SCY-078, (1S,4aR,6aS,7R,8R,10aR,10bR,12aR,14R,15R)-15-[[(2R)-2-amino-2,3,3-trimethylbutyl]oxy]-8-[(1R)-1,2-dimethylpropyl]-14-[5-(4-pyridinyl)-1H-1,2,4-triazol-1-yl]-1,6,6a,7,8,9,10,10a,10b,11,12,12a-dodecahydro-1,6a,8,10a-tetramethyl-4H-1,4a-propano-2H-phenanthro[1,2-c]pyran-7-carboxylic acid] |  |  |  | 1 µg/mL | 8 µg/mL | 16% | no animals surviving until day 13
